US12502362B2, “Inhibitors of nucleotidyltransferase superfamily enzymes as antibiotics” (priority 2017, dated 2025)
Read-outs that look alike come from different tables or passages of the source.

How the values were obtained:
S. aureus (ATCC 29213) = assay: MIC80 on S. aureus; format: cell-based, Staphylococcus aureus; conditions: ≥80% growth inhibition
[1] = system: Staphylococcus saprophyticus (ATCC BAA-750); assay: MIC80 on S. saprophyticus; format: cell-based; conditions: S. saprophyticus ATCC BAA-750, read-out: MIC80 S. sapro
Description: To further characterize the compounds, the minimal inhibitory concentration (MIC80) were determined for selected compounds. MIC80 is defined as the compound concentration at which ≥80% bacterial growth is inhibited compare to untreated controls. Meanwhile, for the selected compounds, cytotoxicity assays (CC50) were performed on a HepG2-derived hepatoblastoma cell line (HEPDES19). […] For CC50 evaluation, soluble tetrazolium dye (MTS) was used to measure mitochondrial toxicity in a human hepatoblastoma cell line (18). The bacteria (E. coli, S. saprophyticus and A. baumannii) used in MIC80 measurements were the same as that in the primary screening, but for Staphylococcus, S. aureus is used primarily because it is a common pathogen in Staphylococcaeae family, while S. saprophyticus is part of the normal human flora.

Staphylococcus hominis = format: cell-based
Description: (§1) It was also tested whether compounds #63 and #285 can inhibit other coagulase-negative Staphylococcus (CNS) including S. epidermidis, S. hominis, etc. […].

[2] = system: Staphylococcus epidermidis; format: cell-based
Description: as §1

[3] = system: S. aureus ATCC strains and MRSA; format: cell-based, Staphylococcus aureus
E. coli (ATCC 35218) = assay: microbe, parasite or virus in culture; format: cell-based
[4] = system: Ps. aeruginosa (ATCC 27853); assay: MIC80 on Ps. aeruginosa; format: cell-based; conditions: Pseudomonas aeruginosa, ATCC27853

O=C(O)c1cn(C2CC2)c2cc(N3CCNCC3)c(F)cc2c1=O [Compound 67, Ciprofloxacin]
MIC80 S. aureus (S. aureus (ATCC 29213); S. aureus ATCC 29213 (MSSA)): <2.6 µM
MIC80 (S. aureus (ATCC 29213); Staphylococcus aureus, ATCC 29213 / MSSA, read-out: MIC80 S. aureus, S. aureus ATCC 29213 (MSSA)): < 2.9 µM
MIC80 [1]: <2.9 µM
MIC80 ([1]; Staphylococcus saprophyticus, ATCCBAA750): < 2.9 µM
Antibiotic susceptibility (Staphylococcus hominis): R and S
Antibiotic susceptibility [2]: R and S
Antibiotic susceptibility ([3]; S. aureus ATCC 25923): S
Antibiotic susceptibility ([3]; S. aureus ATCC 29213): S
Antibiotic susceptibility ([3]; S. aureus ATCC BAA 976): S
Antibiotic susceptibility ([3]; S. aureus ATCC BAA 977): S
Antibiotic susceptibility ([3]; S. aureus ATCC BAA 1026): R
Antibiotic susceptibility ([3]; Sa1 (MRSA)): R
Antibiotic susceptibility ([3]; Sa2 (MRSA)): R
Antibiotic susceptibility ([3]; Sa3 (MRSA)): R
Antibiotic susceptibility ([3]; Sa5 (MRSA)): R
Antibiotic susceptibility ([3]; Sa6 (MRSA)): R
Antibiotic susceptibility ([3]; Sa7 (MRSA)): S
Antibiotic susceptibility ([3]; Sa8 (MRSA)): R
Antibiotic susceptibility ([3]; Sa9 (MRSA)): R
Antibiotic susceptibility ([3]; Sa10 (MRSA)): R
Antibiotic susceptibility ([3]; Sa11 (MRSA)): R
Antibiotic susceptibility ([3]; Sa12 (MRSA)): R
Antibiotic susceptibility ([3]; Sa14 (MRSA)): R
Antibiotic susceptibility ([3]; Sa15 (MRSA)): R
Antibiotic susceptibility ([3]; Sa16 (MRSA)): R
Antibiotic susceptibility ([3]; Sa17 (MRSA)): R
Antibiotic susceptibility ([3]; Sa18 (MRSA)): R
Antibiotic susceptibility ([3]; Sa19 (MRSA)): S
Antibiotic susceptibility ([3]; Sa20 (MRSA)): R
Antibiotic susceptibility ([3]; Sa21 (MRSA)): S
Antibiotic susceptibility ([3]; Sa22 (MRSA)): S
Antibiotic susceptibility ([3]; Sa23 (MRSA)): S
MIC80 E. coli (E. coli (ATCC 35218); E. coli ATCC 35218): <2.9 µM
MIC80 (E. coli (ATCC 35218); Escherichia coli, ATCC35218, read-out: MIC80 E. coli, E. coli ATCC 35218): < 2.9 µM
MIC80 [4]: < 2.9 µM
